The values that follow come from ChEMBL document CHEMBL1151879, “Discovery of novel benzene 1,3-dicarboxylic acid inhibitors of bacterial MurD and MurE ligases by structure-based virtual screening approach” (Bioorg Med Chem Lett, 2009).

Test [1] can be described thus: Inhibition of MurD.
Test [2] deals with Escherichia coli. Briefly: Inhibition of Escherichia coli MurD assessed as residual activity at 100 uM after 15 mins by malachite green assay.
In test [3] the test system is Escherichia coli. The test is described as follows: Inhibition of Escherichia coli MurE assessed as residual activity at 100 uM after 15 mins by malachite green assay.
Test [4] deals with Escherichia coli. Briefly: Inhibition of Escherichia coli MurE assessed as residual activity at 250 uM after 15 mins by malachite green assay.
Test [5] relates to Escherichia coli. The test is described as follows: Inhibition of Escherichia coli MurD assessed as residual activity at 250 uM after 15 mins by malachite green assay.
A short description of test [6]: Inhibition of Escherichia coli MurE after 15 mins by malachite green assay.
Test [7] in a line: Inhibition of Escherichia coli MurD.
The nature of test [8]: Inhibition of Escherichia coli MurD after 15 mins by malachite green assay.
In test [9] the test system is Escherichia coli. Briefly: Antibacterial activity against Escherichia coli ATCC 25922. The test is classed as functional.
A further test deals with Pseudomonas aeruginosa. The test is described as follows: Antibacterial activity against Pseudomonas aeruginosa ATCC 27853. The test is classed as functional.
The test system of a further test is Enterococcus faecalis. The test is described as follows: Antibacterial activity against Enterococcus faecalis ATCC 29212. The test is classed as functional.
The next test deals with Staphylococcus aureus. The test is described as follows: Antibacterial activity against Staphylococcus aureus ATCC 29213. The test is classed as functional.
A short description of test [10]: Inhibition of MurE assessed as residual activity.

As for `CCCCOc1ccc2cc(S(=O)(=O)N[C@@H](CCC(=O)O)C(=O)O)ccc2c1`, the IC50 in test [1] turned out to be 710 µM.

In turn, `CCCCOc1ccc2cc(S(=O)(=O)N[C@H](CCC(=O)O)C(=O)O)ccc2c1` gave an IC50 in test [1] of 276 µM.

`O=C(CSc1nc2ccccc2s1)Nc1cc(C(=O)O)cc(C(=O)O)c1`: the Activity in the test on Escherichia coli [2] turned out to be 97%; in the test on Escherichia coli [3], 94%.

For `CCOc1ccc2[nH]c(SCC(=O)Nc3cc(C(=O)O)cc(C(=O)O)c3)nc2c1`, the Activity in the test with Escherichia coli [2] was 89%; in the test with Escherichia coli [3] it was 95%.

As for `O=C(O)c1cc(C(=O)O)cc(-c2ccc(/C=C3/SC(=S)N(NC(=O)c4cccs4)C3=O)o2)c1`, the figures for the Activity with Escherichia coli [4] and in the test on Escherichia coli [5] were 81% and 82%, respectively.

In the case of `Cc1cc(/C=C2/C(=O)NC(=S)N(c3cccc(Cl)c3)C2=O)c(C)n1-c1cc(C(=O)O)cc(C(=O)O)c1`, the Activity in the test with Escherichia coli [2] came out at 90%. This compound also had an IC50 in test [6] of 104 µM.

The compound `O=C(O)CC[C@@H](NS(=O)(=O)c1ccc2cc(OCCCc3ccccc3)ccc2c1)C(=O)O` returned an IC50 in test [7] of 180 µM.

Consider `O=C(O)c1cc(C(=O)O)cc(-c2ccc(/C=C3/SC(=S)N(c4ccc5c(c4)OCO5)C3=O)o2)c1`, for which the 50% inhibitory concentration (IC50) in [8] is 270 µM; in [6], 32 µM.

As for `CCOC(=O)COc1ccc2cc(S(=O)(=O)N[C@H](CCC(=O)O)C(=O)O)ccc2c1`, the IC50 in test [7] came out at 192 µM.

For the compound `COc1cccc(/C=C2\SC(=S)N(C(CCC(=O)O)C(=O)O)C2=O)c1` (stereo not drawn), the Activity amounted to 98% with Escherichia coli [2] and 89% in the test with Escherichia coli [3].

Turning to `O=C(O)CC[C@@H](NC(=O)c1ccc(CNc2ccc(/C=C3\SC(=S)NC3=O)cc2)cc1)C(=O)O`, the MBC with Escherichia coli [9], against Pseudomonas aeruginosa, against Enterococcus faecalis and in the test on Staphylococcus aureus was above 128 µg/mL each time. The MIC against Escherichia coli [9], against Pseudomonas aeruginosa, in the test with Enterococcus faecalis and against Staphylococcus aureus was above 128 µg/mL throughout.

Consider `CCc1ccccc1N1C(=O)/C(=C\c2cc(C)n(-c3cc(C(=O)O)cc(C(=O)O)c3)c2C)C(=O)NC1=S`, for which the values for the Activity in the test with Escherichia coli [2] and in the test with Escherichia coli [3] were 92% and 55%, respectively.

For the compound `COc1ccc(-c2ccc(/C=C3\SC(=S)N(C(CCC(=O)O)C(=O)O)C3=O)o2)c([N+](=O)[O-])c1` (stereo not drawn), the Activity was determined as 87% in the test on Escherichia coli [2], 70% with Escherichia coli [4] and 70% with Escherichia coli [3].

For `CCCCCOc1ccc2cc(S(=O)(=O)N[C@H](CCC(=O)O)C(=O)O)ccc2c1`, it took 239 µM to reach half-maximal inhibition in test [7] (IC50).

In [7], `O=C(O)CC[C@H](NS(=O)(=O)c1ccc2cc(O)ccc2c1)C(=O)O` gave an IC50 of 90 µM.

`C[C@@H](NS(=O)(=O)Cc1ccc([N+](=O)[O-])cc1)C(=O)N[C@H](C)P(=O)(O)C[C@@H](CC(=O)O)C(=O)O`: the Activity in [10] is 8%. The same compound displayed an IC50 in test [7] of 78 µM.

Turning to `C[C@@H](NS(=O)(=O)Cc1ccc([N+](=O)[O-])cc1)C(=O)N[C@H](C)P(=O)(O)C[C@H](CCC(=O)O)C(=O)O`, the IC50 in test [7] was found to be 78 µM.

As for `COC(=O)CC[C@@H](NC(=O)c1ccc(/C=C2\SC(=S)NC2=O)cc1)C(=O)OC`, the MBC with Escherichia coli [9], in the test on Pseudomonas aeruginosa, against Enterococcus faecalis and against Staphylococcus aureus was above 128 µg/mL each time. Moreover, the MIC against Escherichia coli [9], with Pseudomonas aeruginosa, against Enterococcus faecalis and with Staphylococcus aureus was above 128 µg/mL in each case.

As to `CCOc1ccc2nc(SCC(=O)Nc3cc(C(=O)O)cc(C(=O)O)c3)sc2c1`, the results for the Activity with Escherichia coli [2] and in the test with Escherichia coli [3] were 98% and 84%, respectively.

`Cc1cc(/C=C2/C(=O)NC(=S)N(c3ccccc3)C2=O)c(C)n1-c1cc(C(=O)O)cc(C(=O)O)c1`: in [6], the IC50 was 89 µM.

The compound `C[C@@H](NC(=O)/C=C/c1ccc2c(c1)OCO2)P(=O)(O)C[C@H](CCC(=O)O)C(=O)O` displayed an IC50 in test [7] of 95 µM.

In the case of `Cc1cc(/C=C2/C(=O)NC(=S)N(c3ccc(Cl)cc3)C2=O)c(C)n1-c1cc(C(=O)O)cc(C(=O)O)c1`, the Activity with Escherichia coli [2] is 69%. Also, half-maximal inhibition in [6] (IC50) was put at 97 µM.

With `O=C(O)CCC(C(=O)O)N1C(=O)/C(=C/c2ccc(-c3ccc([N+](=O)[O-])cc3)o2)SC1=S` (stereo not drawn), in the test on Escherichia coli [2], the Activity was determined as 74%. For the same compound, in [6], 61 µM corresponded to half-maximal inhibition (IC50).

`N#Cc1ccc(COc2ccc3cc(S(=O)(=O)N[C@H](CCC(=O)O)C(=O)O)ccc3c2)cc1`: the half-maximal inhibitory concentration (IC50) in test [7] was 134 µM.

On to `Cc1cc(C=C2C(=O)NC(=S)NC2=O)c(C)n1-c1cc(C(=O)O)cc(C(=O)O)c1`, for which the Activity in the test on Escherichia coli [2] was found to be 99%; in the test with Escherichia coli [3], 76%.

As to `Cc1cc(/C=C2/C(=O)NC(=S)N(c3cccc(Cl)c3Cl)C2=O)c(C)n1-c1cc(C(=O)O)cc(C(=O)O)c1`, the Activity with Escherichia coli [2] turned out to be 83%. The compound also came in with a 50% inhibitory concentration (IC50) in test [6] of 79 µM.

As to `O=C(O)CC[C@@H](NC(=O)c1ccc(/C=C2\SC(=S)NC2=O)cc1)C(=O)O`, the minimum bactericidal concentration (MBC) in the test with Escherichia coli [9], against Pseudomonas aeruginosa, in the test on Enterococcus faecalis and with Staphylococcus aureus was above 128 µg/mL in each case. Besides, the minimal inhibitory concentration (MIC) with Escherichia coli [9], in the test with Pseudomonas aeruginosa, against Enterococcus faecalis and with Staphylococcus aureus was above 128 µg/mL throughout.
